Measured values published in US20140051679A1, “KINASE INHIBITORS AND METHOD OF TREATING CANCER WITH SAME” (UNIVERISTY HEALTH NETWORKS, priority 2011, published 2014).

How the values were obtained:
human TTK = biological target: T1, human TTK (Homo sapiens, UniProt P33981); assay: TTK inhibition assay (indirect ELISA); assay type: biochemical; conditions: GST-TTK 0.68 nM, 16 μM ATP; read-out: IC50 Ranges TTK
T1 construct: amino terminal GST fusion of full length human TTK; purchased Invitrogen
T1 sequence (P33981 1-857): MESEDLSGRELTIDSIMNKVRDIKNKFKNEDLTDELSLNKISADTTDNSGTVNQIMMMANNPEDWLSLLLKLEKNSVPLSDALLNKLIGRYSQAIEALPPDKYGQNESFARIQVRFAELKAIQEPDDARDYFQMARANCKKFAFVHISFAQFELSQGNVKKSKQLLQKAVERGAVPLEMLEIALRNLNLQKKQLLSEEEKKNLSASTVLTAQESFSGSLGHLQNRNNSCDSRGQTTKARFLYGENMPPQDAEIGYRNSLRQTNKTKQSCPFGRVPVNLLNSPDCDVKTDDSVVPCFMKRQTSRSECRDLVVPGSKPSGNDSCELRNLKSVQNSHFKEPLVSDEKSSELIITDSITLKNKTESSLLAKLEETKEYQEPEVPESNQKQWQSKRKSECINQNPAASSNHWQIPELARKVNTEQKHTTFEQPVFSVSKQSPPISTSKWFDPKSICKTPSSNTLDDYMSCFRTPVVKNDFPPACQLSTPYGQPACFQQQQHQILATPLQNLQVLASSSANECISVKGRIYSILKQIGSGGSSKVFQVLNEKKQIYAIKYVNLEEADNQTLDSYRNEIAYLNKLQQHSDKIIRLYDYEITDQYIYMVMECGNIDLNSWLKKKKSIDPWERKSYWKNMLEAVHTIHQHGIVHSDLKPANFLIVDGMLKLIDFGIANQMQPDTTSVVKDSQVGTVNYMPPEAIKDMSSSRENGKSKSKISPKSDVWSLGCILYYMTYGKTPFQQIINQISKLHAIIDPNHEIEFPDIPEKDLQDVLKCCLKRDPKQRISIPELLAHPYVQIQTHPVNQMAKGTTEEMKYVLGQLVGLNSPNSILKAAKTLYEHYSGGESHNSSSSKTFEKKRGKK

human PLK4 = biological target: T2, human PLK4 (Homo sapiens, UniProt O00444); assay: PLK4 inhibition assay (indirect ELISA); assay type: biochemical; conditions: GST-PLK4 4 nM, 15 μM ATP; read-out: IC50 Ranges PLK4
T2 construct: amino terminal GST fusion of residues 1-391 of human PLK4; made in house; host or cells: E. coli
T2 sequence (O00444 1-391): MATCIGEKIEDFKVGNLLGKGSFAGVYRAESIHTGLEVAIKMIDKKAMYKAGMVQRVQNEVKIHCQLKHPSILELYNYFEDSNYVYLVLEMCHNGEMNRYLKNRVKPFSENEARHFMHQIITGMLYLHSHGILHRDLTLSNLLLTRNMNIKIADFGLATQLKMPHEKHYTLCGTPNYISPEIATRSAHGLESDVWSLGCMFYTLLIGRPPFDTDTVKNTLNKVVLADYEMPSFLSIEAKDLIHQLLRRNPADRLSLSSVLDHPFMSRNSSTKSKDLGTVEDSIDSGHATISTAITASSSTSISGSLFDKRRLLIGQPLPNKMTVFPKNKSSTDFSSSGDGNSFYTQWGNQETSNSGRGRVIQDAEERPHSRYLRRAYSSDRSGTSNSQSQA
Method in brief: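 Compounds were tested either at a single 10 μM dose or across 10-point titrations (typically 0.5 to 0.001 μM), preincubated 15 min with 4 nM GST-PLK4 (human 1-391, dephosphorylated) before 15 μM ATP was added. MBP substrate phosphorylation over 30 min, pH 7.5 HEPES/MgCl2 buffer, read by HRP/TMB ELISA (450 nm). % inhibition vs. high-activity control; IC50 by logistic fit.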

Aurora B = biological target: T3, Aurora B (Homo sapiens, UniProt Q96GD4); assay: Aurora B inhibition assay (Z-Lyte); assay type: biochemical; conditions: 28 nM Aurora B, 128 μM ATP; read-out: IC50 Ranges Aurora B
T3 construct: purchased Invitrogen PV3970
Description: Aurora B inhibition was determined using the Z-Lyte assay kit from Invitrogen. The assay was performed using the recommended manufacturer's instructions with 128 μM ATP and 28 nM Aurora B (Invitrogen cat #PV3970). The % inhibition values were determined according to the manufacturer's directions and IC50 values were obtained using a non-linear 4 point logistic curve fit (XLfit4, IDBS)

[1] = test system: MDA-MB-231 breast cancer cells; assay: Cell growth inhibition, Sulforhodamine B assay, MDA-MB-231; assay type: cell-based; conditions: Homo sapiens, 120 h, 5 days culture, SRB assay, read-out: Cell Line GI50 Range MDA-MB-231
[2] = test system: MDA-MB-468 breast cancer cells; assay: Cell growth inhibition, Sulforhodamine B assay, MDA-MB-468; assay type: cell-based; conditions: Homo sapiens, 120 h, 5 days culture, SRB assay, read-out: Cell Line GI50 Range MDA-MB-468
[3] = test system: HCT116 colon cancer cells; assay: Cell growth inhibition, Sulforhodamine B assay, HCT116; assay type: cell-based; conditions: Homo sapiens, HCT-116, 120 h, 5 days culture, SRB assay, read-out: Cell Line GI50 Range HCT116
HT29 colon cancer cells = assay: Cell growth inhibition, Sulforhodamine B assay, HT29; assay type: cell-based; conditions: Homo sapiens, HT-29, 120 h, 5 days culture, SRB assay, read-out: Cell Line GI50 Range HT29
[4] = test system: PA-1 ovarian cancer cells; assay: Cell growth inhibition, Sulforhodamine B assay, PA-1; assay type: cell-based; conditions: 120 h, 5 days culture, SRB assay, read-out: Cell Line GI50 Range PA-1
[5] = test system: OVCAR-3 ovarian cancer cells; assay: Cell growth inhibition, Sulforhodamine B assay, OVCAR-3; assay type: cell-based; conditions: Homo sapiens, 120 h, 5 days culture, SRB assay, read-out: Cell Line GI50 Range OVCAR-3

T3 sequence (Q96GD4 whole entry): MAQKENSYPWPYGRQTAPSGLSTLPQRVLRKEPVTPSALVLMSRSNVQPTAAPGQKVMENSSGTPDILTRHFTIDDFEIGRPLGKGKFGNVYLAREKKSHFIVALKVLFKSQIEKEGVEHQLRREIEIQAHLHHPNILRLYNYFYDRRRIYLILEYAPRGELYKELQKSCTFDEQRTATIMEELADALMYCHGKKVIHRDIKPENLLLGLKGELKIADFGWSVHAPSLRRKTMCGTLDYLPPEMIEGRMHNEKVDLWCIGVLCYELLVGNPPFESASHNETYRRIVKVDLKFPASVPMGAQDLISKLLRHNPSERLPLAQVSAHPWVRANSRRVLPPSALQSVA

Structure (SMILES) | IC50 (human TTK) | IC50 (human PLK4) | IC50 (Aurora B) | GI50 [1] | GI50 [2] | GI50 [3] | GI50 (HT29 colon cancer cells) | GI50 [4] | GI50 [5]
CN1CCC(Oc2ccc(-c3n[nH]c4ccc(C(=O)NCc5ccccc5N5CCOCC5)cc34)cc2)CC1 [Example A108, 3-(4-(1-Methylpiperidin-4-yloxy)phenyl)-N-(2-morpholinobenzyl)-1H-indazole-5-carboxamide] | ≤ 5 µM | ≤ 5 µM | ≤ 5 µM | ≤ 5 µM | ≤ 5 µM | ≤ 5 µM | ≤ 5 µM | ≤ 5 µM | ≤ 5 µM
CN1CCN(C(=O)c2cccc(-c3n[nH]c4ccc(NC(=O)C(c5ccsc5)N5CCCC5)cc34)c2)CC1 (stereo not drawn) [Example A96, N-(3-(3-(4-Methylpiperazine-1-carbonyl)phenyl)-1H-indazol-5-yl)-2-(pyrrolidin-1-yl)-2-(thiophen-3-yl)acetamide] | ≤ 5 µM | ≤ 5 µM | 5 to 50 µM | 5 to 20 µM | 5 to 20 µM | 5 to 20 µM | 5 to 20 µM | 5 to 20 µM | 5 to 20 µM
CN1CCC(Oc2ccc(-c3n[nH]c4ccc(NC(=O)C5CCCc6ccccc65)cc34)cc2)CC1 (stereo not drawn) [Example A18, N-(3-(4-((1-methylpiperidin-4-yl)oxy)phenyl)-1H-indazol-5-yl)-1,2,3,4-tetrahydronaphthalene-1-carboxamide] | ≤ 5 µM | ≤ 5 µM | ≤ 5 µM | ≤ 5 µM | ≤ 5 µM | ≤ 5 µM | ≤ 5 µM | ≤ 5 µM | ≤ 5 µM
CCC(NC(=O)c1ccc2[nH]nc(-c3ccc(OC4CCN(CCOC)CC4)cc3)c2c1)c1ccccc1 (stereo not drawn) [Example A153, 3-(4-((1-(2-methoxyethyl)piperidin-4-yl)oxy)phenyl)-N-(1-phenylpropyl)-1H-indazole-5-carboxamide] | ≤ 5 µM | ≤ 5 µM | ≤ 5 µM | ≤ 5 µM | ≤ 5 µM | ≤ 5 µM | ≤ 5 µM | ≤ 5 µM | ≤ 5 µM
CN1CCC(Oc2ccc(-c3n[nH]c4ccc(C(=O)NCc5ccccc5CN5CCOCC5)cc34)cc2)CC1 [Example A109, 3-(4-(1-Methylpiperidin-4-yloxy)phenyl)-N-(2-(morpholinomethyl)benzyl)-1H-indazole-5-carboxamide] | ≤ 5 µM | ≤ 5 µM | ≤ 5 µM | ≤ 5 µM | ≤ 5 µM | ≤ 5 µM | ≤ 5 µM | ≤ 5 µM | ≤ 5 µM
COCCN1CCC(Oc2ccc(-c3n[nH]c4ccc(C(=O)NC(c5ccsc5)C5CCCC5)cc34)cc2)CC1 (stereo not drawn) [Example A155, N-(cyclopentyl(thiophen-3-yl)methyl)-3-(4-((1-(2-methoxyethyl)piperidin-4-yl)oxy)phenyl)-1H-indazole-5-carboxamide] | ≤ 5 µM | ≤ 5 µM | ≤ 5 µM | ≤ 5 µM | ≤ 5 µM | ≤ 5 µM | ≤ 5 µM | ≤ 5 µM | ≤ 5 µM
CN1CCC(Oc2ccc(-c3n[nH]c4ccc(C(=O)NC(c5ccccc5)C5CCCC5)cc34)cc2)CC1 (stereo not drawn) [Example A159, N-(cyclopentyl(phenyl)methyl)-3-(4-((1-methylpiperidin-4-yl)oxy)phenyl)-1H-indazole-5-carboxamide] | ≤ 5 µM | ≤ 5 µM | ≤ 5 µM | ≤ 5 µM | ≤ 5 µM | ≤ 5 µM | ≤ 5 µM | ≤ 5 µM | ≤ 5 µM
CN1CCC(Oc2cccc(-c3n[nH]c4ccc(NC(=O)C(c5ccsc5)N5CCCC5)cc34)c2)CC1 (stereo not drawn) [Example A99, N-(3-(3-((1-methylpiperidin-4-yl)oxy)phenyl)-1H-indazol-5-yl)-2-(pyrrolidin-1-yl)-2-(thiophen-3-yl)acetamide] | ≤ 5 µM | ≤ 5 µM | ≤ 5 µM | ≤ 5 µM | ≤ 5 µM | ≤ 5 µM | ≤ 5 µM | ≤ 5 µM | ≤ 5 µM

Other lines, results leading:

IC50 (human TTK) | IC50 (human PLK4) | IC50 (Aurora B) | GI50 [1] | GI50 [2] | GI50 [3] | GI50 (HT29 colon cancer cells) | GI50 [4] | GI50 [5] | Structure (SMILES)
≤ 5 µM | ≤ 5 µM | ≤ 5 µM | ≤ 5 µM | ≤ 5 µM | ≤ 5 µM | ≤ 5 µM | ≤ 5 µM | 5 to 20 µM | CN1CCN(C)c2ccc(-c3n[nH]c4ccc(NC(=O)C(c5ccsc5)N5CCCC5)cc34)cc2C1 (stereo not drawn) [Example A93, N-(3-(1,4-dimethyl-2,3,4,5-tetrahydro-1H-benzo[e][1,4]diazepin-7-yl)-1H-indazol-5-yl)-2-(pyrrolidin-1-yl)-2-(thiophen-3-yl)acetamide]
≤ 5 µM | ≤ 5 µM | ≤ 5 µM | ≤ 5 µM | ≤ 5 µM | ≤ 5 µM | ≤ 5 µM | ≤ 5 µM | ≤ 5 µM | COCCN1CCC(Oc2ccc(-c3n[nH]c4ccc(C(=O)NC(c5ccccc5)C5CCCC5)cc34)cc2)CC1 (stereo not drawn) [Example A161, N-(cyclopentyl(phenyl)methyl)-3-(4-((1-(2-methoxyethyl)piperidin-4-yl)oxy)phenyl)-1H-indazole-5-carboxamide]
≤ 5 µM | ≤ 5 µM | ≤ 5 µM | ≤ 5 µM | ≤ 5 µM | ≤ 5 µM | ≤ 5 µM | ≤ 5 µM | ≤ 5 µM | Cc1ccccc1CC(=O)Nc1ccc2[nH]nc(-c3ccc(OC4CCN(C)CC4)cc3)c2c1 [Example A92, N-(3-(4-(1-Methylpiperidin-4-yloxy)phenyl)-1H-indazol-5-yl)-2-o-tolylacetamide]
≤ 5 µM | ≤ 5 µM | ≤ 5 µM | ≤ 5 µM | ≤ 5 µM | ≤ 5 µM | ≤ 5 µM | ≤ 5 µM | ≤ 5 µM | O=C(NC(c1ccccc1)C1CC1)c1ccc2[nH]nc(-c3ccc(OC4CCN(CCO)CC4)cc3)c2c1 (stereo not drawn) [Example A104, N-(cyclopropyl(phenyl)methyl)-3-(4-((1-(2-hydroxyethyl)piperidin-4-yl)oxy)phenyl)-1H-indazole-5-carboxamide]
